Laboratory results from PubChem BioAssay (NCI).
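Cultured in 96-well plates, cells were exposed to test compound for 48 hours across five concentrations. GI50 = concentration required for 50% inhibition of growth. TGI: concentration producing complete growth inhibition.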

Legend:
Test in all cases: growth of human tumour cells (NCI), 48 h
SF-295 CNS = system: SF-295 CNS
HCT-15 colon = system: HCT-15 colon
OVCAR-5 ovarian = system: OVCAR-5 ovarian
ACHN renal = system: ACHN renal
SK-MEL-28 melanoma = system: SK-MEL-28 melanoma
UACC-62 melanoma = system: UACC-62 melanoma
SW-620 colon = system: SW-620 colon
SNB-75 CNS = system: SNB-75 CNS

Compound	GI50 (SF-295 CNS)	TGI (SF-295 CNS)	GI50 (HCT-15 colon)	TGI (HCT-15 colon)	GI50 (OVCAR-5 ovarian)	TGI (OVCAR-5 ovarian)	GI50 (ACHN renal)	TGI (ACHN renal)	GI50 (SK-MEL-28 melanoma)	TGI (SK-MEL-28 melanoma)	GI50 (UACC-62 melanoma)	TGI (UACC-62 melanoma)	GI50 (SW-620 colon)	TGI (SW-620 colon)	GI50 (SNB-75 CNS)	TGI (SNB-75 CNS)
O=C1N=C(Nc2nc(-c3csc(NC4=NC(=O)/C(=C\c5ccc(Cl)cc5)S4)n3)cs2)S/C1=C/c1ccc(Cl)cc1	17.4 µM	> 50 µM	40.4 µM	> 50 µM	25.8 µM	> 50 µM	11.2 µM	48.5 µM	42.8 µM	> 50 µM	6.03 µM	16.4 µM	39 µM	> 50 µM		
O=C1NC(=N[C@H](CO)c2ccccc2)S/C1=C\c1ccc2ncccc2c1	4.69 µM	> 20 µM	5.2 µM	> 25 µM	4.96 µM	20.1 µM	4.91 µM	> 24 µM	7.96 µM	> 25 µM	5.74 µM	24.7 µM	4.02 µM	> 20.5 µM	1.46 µM	17.7 µM
Cc1cc(N)cc(C)c1-c1c(Br)cc(N)cc1Br	2.76 µM	12.1 µM	4.77 µM	> 100 µM	4.84 µM	> 100 µM	10.6 µM	98.4 µM	5.21 µM	33.7 µM	3.52 µM	24 µM	3.68 µM	> 100 µM	2.29 µM	16.2 µM
N=C1C(c2nc3ccccc3s2)=C(O)CN1c1cc(Cl)cc(Cl)c1	89.2 µM	> 100 µM	0.705 µM	> 100 µM	> 100 µM	> 100 µM	> 100 µM	> 100 µM	> 100 µM	> 100 µM	> 100 µM	> 100 µM	> 100 µM	> 100 µM	18.7 µM	77.4 µM
CC(=O)C(C=O)C(C)=O.CC(=O)CC(C)=O.CC(=O)CC(C)=O.[Ru]	16.2 µM	68 µM	11.7 µM	93.6 µM	32.2 µM	> 100 µM	21 µM	> 100 µM	48.8 µM	> 100 µM	0.589 µM	19.1 µM	15.6 µM	69 µM	> 100 µM	> 100 µM
CC(C)COC(c1ccc2c(c1)OCO2)C(C)Br (stereo not given)		53.6 µM		66.1 µM		49.3 µM		> 100 µM		> 100 µM		> 100 µM		> 100 µM		55.7 µM
FC(F)(F)c1ccc(NCc2nc3ccccc3[nH]2)cc1	18.7 µM	65.8 µM	32.7 µM	> 100 µM	27.8 µM	78.3 µM	34.5 µM	> 100 µM	27.9 µM	> 100 µM	18.7 µM	56.5 µM	35.7 µM	> 100 µM	23 µM	> 100 µM
Cc1ccc(S(=O)(=O)CC2(Br)CCc3ccccc3C2=O)cc1 (stereo not given)		> 100 µM		42.5 µM		> 100 µM		38.2 µM		38.5 µM		67.9 µM		> 100 µM		54.9 µM
